Data set [1] has as its system WiDr cells (colon cancer cells, wildtype SF3B1). In words: Cell viability assay (CellTiter-Glo, 72 hr), WiDr. Type of data set: cell-based. The following applies: Homo sapiens. As to the method:
(§1) Cells (WiDr and Panc05.04 obtained from ATCC) were seeded in 96-well plates, with 2000 cells/100 μL/well, and incubated overnight. Spent media was removed, and fresh media containing 9 different concentrations of compound (100 μL/well) were added, with DMSO concentration from compound stock solution adjusted to be 0.1%. Each compound treatment was done in duplicate or triplicate at each concentration.
(§2) Another plate with cells seeded was dedicated as a time zero (Tz) plate, to which was added 0.1% DMSO in media (100 μL/well) followed by CellTiter-Glo® reagent (Promega Corporation, Madison, Wis.) (50 μL/well) for ATP measurement as a surrogate of cell viability. Average value from measurement of multiple wells of this plate is used as Tz.
(§3) Compound-treated plates were incubated for 72 hr at 37° C. Then, CellTiter-Glo® reagent (50 μL/well) was added and ATP was measured. Average value from measurement of the duplicate or triplicate compound-treated wells is used as Ti, and seeded plates with medium having 0.1% DMSO without compound is used as control growth (C).
(§4) Percentage growth inhibition/Percentage viability was calculated as: [(Ti−Tz)/(C−Tz)]×100 for concentrations for which Ti>/=Tz [(Ti−Tz)/Tz]×100 for concentrations for which Ti<Tz. *time zero (Tz), control growth (C), and test growth in the presence of compound (Ti) Percentage growth inhibition/Percentage viability are plotted versus compound concentration to determine Emax.
(§5) Growth inhibition of 50% (GI50) was calculated from [(Ti−Tz)/(C−Tz)]×100=50, which is the drug concentration resulting in a 50% reduction in the net increase of ATP in control growth (C) during the compound treatment.
(§6) The counter-screening of compounds in this viability assay with a “resistant” WiDr-R cell line may indicate whether these compounds have off-target effect(s).

Data set [2] relates to Panc 05.04 cells (mt SF3B1; Q699H and K700E mutations in SF3B1). In words: Cell viability assay (CellTiter-Glo, 72 hr), Panc 05.04. Type of data set: cell-based. The following applies: for GI50 / Emax: Panc 05.04, 72 hr; for Emax: negative value indicates cellular lethality. As to the method:
as §1, §2, §3, §4, §5
Emax refers to the maximum achievable response to a compound in a tested dose range, with a negative value indicating cellular lethality. A larger negative Emax value indicates greater cellular lethality for a particular compound.
A general note: ATP-based viability assays read luminescence as a measure of living cells.

Data set [3] deals with WiDr-R cells (colon cancer cells, SF3B1 R1074H mutation). Description: Cell viability assay (CellTiter-Glo, 72 hr), WiDr-R counter-screen. Type of data set: cell-based. The procedure: as §1, §2, §3, §4, §5, §6
In data set [4] the test system is splicing of Ad2 pre-mRNA in HeLa nuclear extract. In words: In vitro splicing (IVS) biochemical assay. The following applies: 30° C. As to the method: Biotin-labeled pre-mRNA of an adenovirus type 2 construct with a deletion of intervening sequence (Ad2) (Berg, M. G., et al. 2012 Mol. Cell Bio., 32(7):1271-83) was prepared by in vitro transcription. The Ad2 construct containing Exon 1 (41 nucleotides), Intron (231 nucleotides), and Exon 2 (72 nucleotides) was generated by gene synthesis and cloned into the EcoRI and XbaI sites of pGEM®-3Z vector (Promega) by Genewiz® (South Plainfield, N.J.). The plasmid was then linearized by XbaI digestion and purified. In vitro transcription and purification of transcribed pre-mRNA were performed using the MEGAscript® T7 transcription kit (Invitrogen™, Life Technologies™, Grand Island, N.Y.) and MEGAclear™ transcription clean-up kit (Invitrogen™, Life Technologies™, Grand Island, N.Y.), respectively, following the manufacturer's instructions. The ratio of biotin-16-UTP (Roche Diagnostics Corporation, Indianapolis, Ind.) to cold UTP was 1:13 to incorporate approximately two biotin molecules per spliced Ad2 mRNA.
In vitro splicing assay was performed at 30° C. in 25 μL reaction mixtures containing 95 μg HeLa nuclear extract (Promega Corporation, Madison, Wis.), 47 nM Ad2 pre-mRNA, 25 U RNasin RNase inhibitor (Promega Corporation, Madison, Wis.), 1×SP buffer (0.5 mM ATP, 20 mM creatine phosphate, 1.6 mM MgCl2), and compounds in DMSO (with 1% final concentration of DMSO). After […] of incubation, the reaction was stopped by addition of 18 μL of 5M NaCl, and the mixtures were incubated with 10 μL of M-280 streptavidin-coated magnetic beads (Invitrogen™, Life Technologies™, Grand Island, N.Y.) for 30 min at room temperature to capture Ad2 pre- and spliced mRNA. The beads were washed twice with 100 uL buffer containing 10 mM Tris pH=7.5, 1 mM EDTA and 2M NaCl, and then incubated in RNA gel loading buffer containing 95% formamide at 70° C. for 10 min to elute the RNAs. Ad2 RNAs were resolved by 6% TBE-UREA gel, transferred to a nylon membrane, UV cross-linked, and probed with an IRDye® labeled streptavidin (LI-COR, Lincoln, Nebr.). The amount of spliced RNA was quantified by measuring the band fluorescent intensity using LI-COR Image Studio software.
The in vitro splicing (IVS) assay described above is a biochemical assay that monitors inhibition of the splicing of an exemplary pre-mRNA into an mRNA.

The nature of data set [5]: pH stability measurement (UPLC, 0.1 N HCl). Type of data set: physicochemical. The following applies: 0.1 N HCl, pH 1, 24 hours. The procedure:
Compounds were provided in 96-well plates and tested in triplicate. Four microliters of a 10 mM stock solution of compound in DMSO were distributed into each of three wells. The plate was stored at or below −20° C. until the day of the analysis. Methanol (HPLC grade) and 0.1 N HCl (EMD catalog HX0603A-6) were used for dilutions. Acetonitrile (HPLC grade), water (Milli-Q filtered), trifluoroacetic acid (spectral grade) and 0.2M phosphate buffer (Wako, catalog no. 163-14471) were used to prepare the mobile phase for the two analyses.
Stability data was obtained using a Waters Acquity UPLC equipped with a UV detector (Waters TUV) and single quadrupole MS detector (Waters SQD). The 96-well plate containing the compound(s) of interest was(were) removed from the freezer and allowed to warm to room temperature for one hour. The UPLC was primed, equilibrated and the system performance was verified by injecting a standard. After 1 hour, each of the three wells was diluted with 266 μL 0.1 N HCl to give pH=1. The plate was covered and placed on a shaker (Eppindorf Thermomixer R) for 45 minutes at 600 rpm. The plate was removed from the shaker, and the contents of each well were filtered through a filtration plate (Millipore catalog no. MSSLBPC50) by vacuum and injected into the UPLC. After approximately 24 hours, the contents of the wells were re-injected into the UPLC.
Stability in the various buffers was measured by comparing the peak area- % of the analyte in methanol versus the peak area- % of the analyte at the same retention time in 0.1 N HCl buffer in the 24 hr time point injection.

Broadly, the GI50 is the concentration at which growth is held to half of that of the control. The term IC50 denotes the concentration at which inhibition is half-maximal. A higher IC50 goes with a need for much substance.

With `C/C(=C\C=C\[C@@H](C)c1ccccn1)[C@H]1OC(=O)C[C@H](O)CC[C@@](C)(O)[C@@H](OC(=O)N2CCN(C3CCCCCC3)CC2)/C=C/[C@@H]1C` [Compound 1, (2S,3S,6S,7R,10R,E)-7,10-dihydroxy-3,7-dimethyl-12-oxo-2-((R,2E,4E)-6-(pyridin-2-yl)hepta-2,4-dien-2-yl)oxacyclododec-4-en-6-yl 4-cycloheptylpiperazine-1-carboxylate], the GI50 in data set [1] is 15.8 nM; in data set [2], 19.5 nM; in data set [3], more than 1000 nM. In addition, the Emax in data set [2] is -86.8%. Moreover, the “cellular lethality (Emax comparison)” value in data set [2] (Panc 05.04 cells) is “greater cellular lethality than Compound 2”. The IC50 in data set [4] turned out to be 188 nM. Further, the “% parent remaining (pH = 1, 24 hours)” value in data set [5] came to 91%.

For the molecule `C/C(=C\C=C\[C@@H](C)c1ccccn1)[C@H]1OC(=O)C[C@H](O)CC[C@@](C)(O)[C@@H](OC(=O)N2CCN(C)CC2)/C=C/[C@@H]1C` [Compound 2, (2S,3 S,6S,7R,10R,E)-7,10-dihydroxy-3,7-dimethyl-12-oxo-2-((R,2E,4E)-6-(pyridin-2-yl)hepta-2,4-dien-2-yl)oxacyclododec-4-en-6-yl 4-methylpiperazine-1-carboxylate], the GI50 in data set [1] is 31.8 nM; in data set [2] it was 32.7 nM; in data set [3] it was more than 1000 nM. The Emax in data set [2] is -66.1%. Moreover, in data set [4], the IC50 came out at 1330 nM. Moreover, the “% parent remaining (pH = 1, 24 hours)” value in data set [5] came out at 96%.

For `C/C(=C\C=C\[C@@H](C)c1ccccn1)[C@H]1OC(=O)C[C@H](O)CC[C@@](C)(O)[C@@H](OC(=O)N2CCC(N3CCCCCC3)CC2)/C=C/[C@@H]1C` [Compound 3, (2S,3S,6S,7R,10R,E)-7,10-dihydroxy-3,7-dimethyl-12-oxo-2-((R,2E,4E)-6-(pyridin-2-yl)hepta-2,4-dien-2-yl)oxacyclododec-4-en-6-yl 4-(azepan-1-yl)piperidine-1-carboxylate], the results for the GI50 in data set [1], in data set [2] and in data set [3] were 26.3 nM, 20.8 nM and more than 1000 nM, respectively. In data set [2], the Emax is -90.8%. In data set [4], this molecule came in with an IC50 of 770 nM. Moreover, the “% parent remaining (pH = 1, 24 hours)” value in data set [5] is 98%.

As to `C/C(=C\C=C\[C@@H](C)c1ccccn1)[C@H]1OC(=O)C[C@H](O)CC[C@@](C)(O)[C@@H](OC(=O)N2CCC(N3CCCCC3)CC2)/C=C/[C@@H]1C` [Compound 4, (2S,3 S,6S,7R,10R,E)-7,10-dihydroxy-3,7-dimethyl-12-oxo-2-((R,2E,4E)-6-(pyridin-2-yl)hepta-2,4-dien-2-yl)oxacyclododec-4-en-6-yl[1,4′-bipiperidine]-1′-carboxylate], the GI50 is 13 nM in data set [1], 11.8 nM in data set [2] and more than 1000 nM in data set [3]. The Emax in data set [2] was -86.2%. Also, in data set [4], half-maximal inhibition (IC50) was put at 89 nM. Besides, the “% parent remaining (pH = 1, 24 hours)” value in data set [5] came out at 99%.
